According to patent US9539298B2, “Lissencephaly therapeutic agent” (OSAKA CITY UNIVERSITY, priority 2010, dated 2017):

Tests used:
[1] = tested on: LIS1 heterozygous adult mice; assay: LIS1 protein in adult mouse brains after SNJ-1945 intraperitoneal administration; type: in vivo; settings: three weeks after birth
Procedure: SNJ-1945 was dissolved in dimethyl sulfoxide (DMSO) at a concentration of 100 mg/ml, and intraperitoneally injected to LIS1 heterozygous mice so that the administration amount was 100 μg/per gram of body weight at the time of three weeks after birth. To determine the effect of SNJ-1945 administration, LIS1 proteins of normal adult mice and LIS1 heterozygous adult mice (administered with SNJ-1945) were measured. In the SNJ-1945 administration group, the brain tissues were taken at 0 hour (immediately after the administration), 1 hour, 2 hours, 4 hours, 8 hours, 12 hours, 16 hours, 24 hours, 48 hours, and 72 hours after the administration to measure LIS1 protein, so as to determine the effect of SNJ-1945 over time. Six mice for each group were used for the measurement of LIS1 protein (n=6).
For the measurement of LIS1 protein amount, the weight of the brains was immediately measured as soon as the brains were removed.

[2] = tested on: LIS1 heterozygous mice (lissencephaly model mice); assay: Behavior analysis: Gait Analysis; type: in vivo, mouse; settings: 200 μg/g per day oral; for Swing-to-Stance Ratio: FIG. 13
Procedure: To conduct a behavior analysis experiment, wild-type mice and Lis1 (^+/−) heterozygous mice were divided into five groups (C group, M1 group, M2 group, M3 group, and M4 group). The details regarding the mice in each group are described below. CE-2 (CLEA Japan, Inc.) was used as mice feed. The wild-type mice and heterozygous mice used for this experiment were prepared in the same method as described in the above section “Preparation of LIS1 gene hetero-deficient mice (LIS1 heterozygous mice).”
M2 group: LIS1 heterozygous mice prepared as follows. SNJ-1945 was dissolved in dimethyl sulfoxide (Sigma, D-5879) at a concentration of 100 mg/ml, and administered to pregnant mice from Day 9.5 of the embryonic period (E9.5) in an amount of 200 μg per gram of maternal body weight per day. The administration was performed by adding SNJ-1945 to mice feed. During the postnatal period, the administration was continued in the same manner as in M3 group below. M3 group: LIS1 heterozygous mice prepared as follows. […]
By adding SNJ-1945 to the mice feed (CE-2, CLEA Japan, Inc.), SNJ-1945 was continuously administered to the mice so that the administration amount became 200 μg per gram of body weight per day through oral administration. For a behavior analysis experiment, 12 to 16 mice were grouped to be subjected to preliminary breeding in the behavior experiment facility for 1 to 2 weeks; thereafter, the behavior of the mice was analyzed at an age of about 9 to 12 weeks. After the behavior analysis experiment, a gene type was determined for all mice.
Statistical processing of experiment data of mice behavior analysis was conducted using Stat View (SAS institute) statistics software. ANOVA assay (analysis of variance between multiple groups) was conducted for all five groups, and a group with a risk rate (p value) of less than 5% (p<0.05) was determined to have a significant difference. […]

[3] = target: m-calpain (derived from porcine kidney) (Sus scrofa, UniProt I3LQD3); assay: Measurement of inhibitory activity against m-calpain; type: biochemical; settings: casein substrate, 30° C., 60 minutes; read-out: enzyme inhibitory activities (μM) m-calpain
Procedure: More specifically, 200 μL of a reaction solution containing 0.5 mg/mL casein, 50 mM Tris-HCl buffer (pH 7.4), 20 mM dithiothreitol and 1.0 nmol μ-calpain (derived from human red blood cells, Cosmo Bio Co., Ltd.) or m-calpain (derived from porcine kidney, Cosmo Bio Co., Ltd.) was added to individual 2.5 μL portions of DMSO solution containing a varying concentration of a test sample in a 96-well plate. Then, 50 μL of 20 mM aqueous calcium chloride was added thereto, and reaction was performed at 30° C. for 60 minutes. 100 μL of the reaction solution was transferred to another 96-well plate, and purified water (50 μL) and 50% aqueous solution (100 μL) of Protein Assay Dye Reagent (available from Bio-Rad Laboratories, Inc.; catalogue No. 500-600) were added thereto. […] The absorbance of a reaction mixture prepared in the same manner as mentioned above, except that a DMSO solution containing no sample was used as a control value; and the absorbance of a reaction mixture prepared in the same manner as mentioned above, except that a 1 mM aqueous EDTA solution (50 μL) was used in place of 20 mM aqueous calcium chloride, was used as a blank value. […] Inhibition rate (%){1−(measured value−blank test value)/(control value−blank test value)}×100

m-calpain (derived from porcine kidney), sequence (I3LQD3 entry or part of it): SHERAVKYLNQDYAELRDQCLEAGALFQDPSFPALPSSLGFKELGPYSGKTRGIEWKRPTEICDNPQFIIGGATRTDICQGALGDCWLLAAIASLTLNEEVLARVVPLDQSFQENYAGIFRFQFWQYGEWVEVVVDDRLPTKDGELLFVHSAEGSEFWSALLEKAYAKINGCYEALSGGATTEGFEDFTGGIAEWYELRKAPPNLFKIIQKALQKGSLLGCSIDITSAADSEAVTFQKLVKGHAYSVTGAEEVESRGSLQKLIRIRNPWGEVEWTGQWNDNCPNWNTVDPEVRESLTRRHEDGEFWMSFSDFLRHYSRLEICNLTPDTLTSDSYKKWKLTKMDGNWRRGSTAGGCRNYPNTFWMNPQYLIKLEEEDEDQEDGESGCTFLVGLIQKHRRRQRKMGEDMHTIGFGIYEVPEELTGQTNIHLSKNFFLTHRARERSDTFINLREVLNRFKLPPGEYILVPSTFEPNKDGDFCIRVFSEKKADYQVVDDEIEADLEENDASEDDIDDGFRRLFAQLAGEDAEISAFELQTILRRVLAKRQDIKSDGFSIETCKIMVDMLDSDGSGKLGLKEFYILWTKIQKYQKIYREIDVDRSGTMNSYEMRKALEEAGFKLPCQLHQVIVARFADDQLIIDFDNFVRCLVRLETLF
m-calpain (derived from porcine kidney), sequence (P04574 whole entry, further chain): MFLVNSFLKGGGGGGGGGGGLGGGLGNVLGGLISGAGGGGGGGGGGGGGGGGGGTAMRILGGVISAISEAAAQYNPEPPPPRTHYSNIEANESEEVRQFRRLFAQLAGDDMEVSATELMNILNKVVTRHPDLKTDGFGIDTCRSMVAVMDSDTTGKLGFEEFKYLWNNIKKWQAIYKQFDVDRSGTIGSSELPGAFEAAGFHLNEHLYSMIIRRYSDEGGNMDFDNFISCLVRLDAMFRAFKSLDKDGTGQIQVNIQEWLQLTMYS

COCCOCCOC(=O)N[C@@H](CC(C)C)C(=O)N[C@@H](Cc1ccccc1)C(=O)C(=O)NC1CC1 [compound 17, ((1S)-1-((((1S)-1-Benzyl-2,3-dioxo-3-(cyclopropylamino)propyl)amino)carbonyl)-3-methylbutyl)carbamic acid 5-methoxy-3-oxapentyl ester]
LIS1 protein amount in adult brain ([1]; 100 μg per gram of body weight IP, FIG. 8): recovered to substantially the normal level | duration of the effect on LIS1 protein after a single dose ([1]; 100 μg/g IP): continued for at least three days | % Swing ([2]; M2, M3 and M4 groups, FIG. 12): there was no significant difference compared with C group | Swing-to-Stance Ratio ([2]; M2 group (administration from E9.5)): recovered to a level at which there was no significant difference with C group | Swing-to-Stance Ratio ([2]; M3 and M4 groups (administration from birth / postnatal Day 10)): closer to 1 than M1 group | IC50 [3]: 0.1 µM
